The results in this text go back to publication PMC5628579, “Potent mechanism-based sirtuin-2-selective inhibition by an in situ-generated occupant of the substrate-binding site, “selectivity pocket” and NAD^+-binding site” (Chemical Science, 2017).

Molecules are shown by their SMILES.

For orientation: IC50 means the concentration needed to halve the response being measured. For orientation: inhibition means the percentage by which the read-out fell short of the control. By GI50 is commonly meant the concentration giving 50% growth inhibition.

Series [1] relates to H3K9Ac (SIRT1 substrate). The series is described as follows: Western blot of H3K9Ac in MDA-MB-231 cells. The format is cell-based, human. To be noted: 6 h. As to the method:
(§1) MCF-7 and MDA-MB-231 cells were plated in 96-well plates (initial density: 1 × 10^3 cells per well) and incubated at 37 °C. After 24 h, test compound solutions (50 μL/well) of varying concentrations in medium (DMEM and Leibovitz's L-15 for MCF-7 and MDA-MB-231 cells respectively) for were added to the cells at 37 °C under 5% CO2 in air and left to react for 72 h. Thereafter, the mixtures were treated with 10 μL of AlamarBlue® (AbD Serotec, #BUF012A), incubation was continued at 37 °C for 3 h. The fluorescence in each well was measured with an ARVOTM X3 microplate reader (λex = 540 nm; λem = 590 nm). With the obtained fluorescence readings, it was possible to calculate the percentage of cell growth.
(§2) MDA-MB-231 cells (5 × 10^5 cells/2 mL/dish) were treated for 6 h with the test compounds at the indicated concentrations in the cell culture medium, before the cells were collected and extracted with SDS buffer. The protein concentrations of the lysates were determined using a BCA protein assay.
(§3) Equivalent amounts of protein from each lysate were resolved in 5–20% SDS-polyacrylamide gels and transferred onto PVDF membranes. […]
(§4) For the differentiation study, the medium was changed to DMEM supplemented with 2% FBS. After incubation with or without 36 for 72 h, the cell morphology was examined using a microscope (Olympus CKX41) and further analyzed with the Photomeasure software (Kenis Ltd.). […]
(In general: A western blot detects proteins with antibodies after separation by electrophoresis.)

The target in series [2] is T1, SIRT1 (Homo sapiens, UniProt Q96EB6).
T1 sequence (Q96EB6 1-747): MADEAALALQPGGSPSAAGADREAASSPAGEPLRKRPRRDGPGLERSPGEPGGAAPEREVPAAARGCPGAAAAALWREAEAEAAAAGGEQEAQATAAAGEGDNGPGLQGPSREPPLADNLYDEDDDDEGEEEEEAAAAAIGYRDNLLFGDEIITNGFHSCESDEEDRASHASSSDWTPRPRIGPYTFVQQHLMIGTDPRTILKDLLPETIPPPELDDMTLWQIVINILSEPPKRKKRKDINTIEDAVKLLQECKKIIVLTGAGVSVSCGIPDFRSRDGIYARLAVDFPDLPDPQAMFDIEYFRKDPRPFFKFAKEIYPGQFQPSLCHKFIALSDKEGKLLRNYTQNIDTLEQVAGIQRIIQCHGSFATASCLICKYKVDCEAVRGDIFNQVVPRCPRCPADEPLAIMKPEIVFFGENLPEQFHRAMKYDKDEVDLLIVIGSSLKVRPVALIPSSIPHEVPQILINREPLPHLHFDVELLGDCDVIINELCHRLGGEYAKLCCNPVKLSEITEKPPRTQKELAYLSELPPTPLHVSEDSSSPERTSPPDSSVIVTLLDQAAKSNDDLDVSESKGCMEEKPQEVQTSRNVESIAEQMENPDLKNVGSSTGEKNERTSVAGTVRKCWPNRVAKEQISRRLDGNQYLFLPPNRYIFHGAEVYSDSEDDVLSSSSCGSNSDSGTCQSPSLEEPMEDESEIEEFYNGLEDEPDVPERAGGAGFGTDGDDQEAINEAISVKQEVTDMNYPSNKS
The series can be described thus: Fluor de Lys SIRT1 assay.

Series [3] in a line: HPLC stability under SIRTs assay conditions. Format: physicochemical. The following applies: buffer pH 8.0, 30 °C, 0–200 min. As for the experimental part: HPLC stability of 36 under SIRTs assay conditions
Compound 36 (10 μL, 0.5 mM) in DMSO/buffer (50 mM Tris/HCl, pH = 8.0, 137 mM NaCl, 2.7 mM KCl, 1 mM MgCl2) was added to selected wells, followed by 40 μL of buffer (50 mM Tris/HCl, pH = 8.0, 137 mM NaCl, 2.7 mM KCl, 1 mM MgCl2). The obtained solution was incubated at 30 °C and 250 rpm for 0, 50, 100, 150, and 200 min. At the end of each incubation time, the wells were diluted with CH3CN (50 μL, HPLC grade). The entire volume (100 μL) was transferred to a Cosmospin filter H (0.45 μm) and 20 μL of the filtrate were injected in the HPLC instrument. Column:
(90%), 30–40 min (90–10%). The peak area was determined at 220 nm. […]

Series [4] deals with MDA-MB-231 cells. The series can be described thus: Cell growth assay (AlamarBlue), MDA-MB-231. The following applies: 72 h of treatment. Format: cell-based, human. On the technique in general: Alamar Blue is a resazurin reagent that responds to reducing activity.
Series [5] deals with acetylated α-tubulin (SIRT2 substrate). The series can be described thus: Western blot of acetylated α-tubulin in MDA-MB-231 cells. The following applies: 20 μM, 6 h. Format: cell-based, human. As to the method: as §1, §2, §3, §4
The target of series [6] is T2, SIRT2 (Homo sapiens, UniProt Q8IXJ6).
T2 sequence (Q8IXJ6 1-389): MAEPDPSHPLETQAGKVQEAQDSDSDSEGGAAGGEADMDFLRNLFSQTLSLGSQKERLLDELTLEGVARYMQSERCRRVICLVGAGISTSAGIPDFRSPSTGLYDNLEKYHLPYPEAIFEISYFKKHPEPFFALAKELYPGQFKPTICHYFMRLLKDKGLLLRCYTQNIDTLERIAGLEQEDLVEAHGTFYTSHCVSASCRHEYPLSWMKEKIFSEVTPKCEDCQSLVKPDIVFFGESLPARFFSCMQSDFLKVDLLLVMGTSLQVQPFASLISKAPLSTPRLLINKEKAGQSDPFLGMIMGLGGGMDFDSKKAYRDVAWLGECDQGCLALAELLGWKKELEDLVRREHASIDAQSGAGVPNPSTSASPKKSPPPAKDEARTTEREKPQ
The series is described as follows: Fluor de Lys SIRT2 assay.

Turning to `C[C@H](NC(=O)[C@H](CCCCNC(=S)CNC(=O)c1ccccc1Nc1cccc(OCCc2ccccc2)c1)NC(=O)OCc1ccccc1)C(N)=O` [Compound 36], the “H3K9Ac level (western blot)” value in series [1] was “did not upregulate”. Besides, the IC50 in series [2] came out at 1.56 ± 0.06 µM; in series [6], 0.055 ± 0.0035 µM. In addition, the inhibition at 1 µM was 29.5 ± 2.1% in series [2] (read-out: % inhibition at 1 μM SIRT1) and 100 ± 3.4% in series [6] (read-out: % inhibition at 1 μM SIRT2). The “HPLC stability under SIRTs assay conditions” value in series [3] is “stable”. Moreover, the GI50 in series [4] is 8.43 ± 0.24 µM; in series [4] (Homo sapiens, MDA-MB-231, 72 h) it was 8.3 µM. In addition, the “acetylated α-tubulin level (western blot)” value in series [5] is recorded as “induced the accumulation of acetylated α-tubulin”. Further, the “SIRT1 [IC50]/SIRT2 [IC50]” value in series [6] (selectivity ratio) amounted to 28.4. For the same compound, the “SIRT3 [IC50]/SIRT2 [IC50]” value in series [6] (selectivity ratio) is given as 172.5.
